Test results reported in patent publication US8501787B2, “Compounds for the inhibition of angiogenesis and use thereof” (Shire Orphan Therapies GmbH, priority 2004, dated 2013).

Target: T1, integrin alpha5beta1 (Homo sapiens, UniProt P05556+P08648)
T1 construct: The integrin alpha5beta1 extracellular domain Fc-fusion was expressed and purified; made in house
Experiment: Alpha5beta1-Fibronectin binding assay (competitive ELISA)
Details: method of section 1.1; read-out: Group (binding activities to integrin alpha5beta1)
Procedure: The optimal concentrations of integrin and ligand were selected from ELISA binding studies with variable concentrations of both to obtain optimal signal noise ratio for further studies. IC50 studies were performed with fixed concentration of ligand and integrin and a serial dilution of inhibitor. The plates were measured with SpectraMax Plus reader (Molecular Devices). The resulting inhibition curves were analyzed using SoftMaxPro 4.0 software, the turning point describes the IC50 value.
Fibronectin and Vitronectin were purchased from Sigma, fibrinogen from Calbiochem. (EMD Biosciences, Darmstadt, Germany) The integrin alpha5beta1 extracellular domain Fc-fusion was expressed and purified as described in (Coe, 2001, JBC, 276, 35854). Integrins alphavbeta3 and alphavbeta5 were purchased from Chemicon (Chemicon Europe, Germany) and alphaIIbbeta3 form Kordia (Kordia Life Science, Leiden, Netherlands)
Fibronectin was diluted with coating buffer (15 mM Na2CO3, 35 mM NaHCO3, pH9.6) and coated with 100 μL/well to Nunc-Immuno maxisorp plates (Nalge Nunc Europe Ltd) over night at 4° C. After discarding the coating solution plates were washed 3 times with buffer 1 ([…], pH7.6, 150 mM NaCl, 1 mM […], 1 mg/mL BSA) and blocked with 100 μL blocking buffer (3% BSA in PBS 0.1% Tween20) for 1 hour at room temperature. After washing the blocked plates (3 times) with buffer 1, integrin (50 μL) and either inhibitor (serial dilution in buffer 1) or buffer 1 (50 μL) were added to the wells and incubated for one hour at RT. Plates were then washed (3 times) with buffer 1 and incubated with 100 μL of anti-human-Fc-HRP antibody conjugate (Sigma-Aldrich, Taufkirchen, Germany) in buffer 1 for 1 hour at RT. After additional washing steps (3 times) with buffer 1 50 μL of HRP substrate solution TMB (Seramun, Germany) were added to the wells. Colour development was stopped after 3-5 minutes with 50 μL 1M H2SO4. The developed colour was measured at 450 nm and analyzed as described above.

## O=C(CO[C@@H]1C[C@@H](CNc2ccccn2)N(C(=O)OCc2ccccc2)C1)NC[C@H](NC(=O)c1ccccc1[N+](=O)[O-])C(=O)O [Compound 96, 4-{[2-Carboxy-2-(2-nitro-benzoylamino)-ethylcarbamoyl]-methoxy}-2-(pyridin-2-ylaminomethyl)-pyrrolidine-1-carboxylic acid benzyl ester]
  IC50: < 0.01 µM

## O=C(CO[C@@H]1C[C@@H](CNc2ccccn2)N(C(=O)OCc2ccccc2)C1)NC[C@H](NC(=O)c1ccccc1Cl)C(=O)O [Compound 97, 4-{[2-Carboxy-2-(2-chloro-benzoylamino)-ethylcarbamoyl]-methoxy}-2-(pyridin-2-ylaminomethyl)-pyrrolidine-1-carboxylic acid benzyl ester]
  IC50: < 0.01 µM

## O=C(CO[C@@H]1C[C@@H](CNc2ccccn2)N(C(=O)OCc2ccccc2)C1)NC[C@H](NC(=O)c1ccccc1-c1ccccc1)C(=O)O [Compound 104, 4-({2-[(Biphenyl-2-carbonyl)-amino]-2-carboxy-ethylcarbamoyl}-methoxy)-2-(pyridin-2-ylaminomethyl)-pyrrolidine-1-carboxylic acid benzyl ester]
  IC50: 0.01 to 0.5 µM

## O=C(CO[C@@H]1C[C@@H](CNc2ccccn2)N(C(=O)OCc2ccccc2)C1)NC[C@H](NC(=O)C1(c2ccccc2)CC1)C(=O)O [Compound 106, 4-({2-Carboxy-2-[(1-phenyl-cyclopropanecarbonyl)-amino]-ethylcarbamoyl}-methoxy)-2-(pyridin-2-ylaminomethyl)-pyrrolidine-1-carboxylic acid benzyl ester]
  IC50: 0.01 to 0.5 µM

## CC(C)(C)C(=O)N[C@@H](CNC(=O)CO[C@@H]1C[C@@H](CNc2ccccn2)N(C(=O)OCc2ccccc2)C1)C(=O)O [Compound 117, 4-{[2-Carboxy-2-(2,2-dimethyl-propionylamino)-ethylcarbamoyl]-methoxy}-2-(pyridin-2-ylaminomethyl)-pyrrolidine-1-carboxylic acid benzyl ester]
  IC50: < 0.01 µM

## CCC(C)(C)C(=O)N[C@@H](CNC(=O)CO[C@@H]1C[C@@H](CNc2ccccn2)N(C(=O)OCc2ccccc2)C1)C(=O)O [Compound 118, 4-{[2-Carboxy-2-(2,2-dimethyl-butyrylamino)-ethylcarbamoyl]-methoxy}-2-(pyridin-2-ylaminomethyl)-pyrrolidine-1-carboxylic acid benzyl ester]
  IC50: < 0.01 µM

## CC(C)c1cc(C(C)C)c(C(=O)N[C@@H](CNC(=O)CO[C@@H]2C[C@@H](CNc3ccccn3)N(C(=O)OCc3ccccc3)C2)C(=O)O)c(C(C)C)c1 [Compound 126, 4-{[2-Carboxy-2-(2,4,6-triisopropyl-benzoylamino)-ethylcarbamoyl]-methoxy}-2-(pyridin-2-ylaminomethyl)-pyrrolidine-1-carboxylic acid benzyl ester]
  IC50: > 0.5 µM

## O=C(CO[C@@H]1C[C@@H](CNc2ccccn2)N(C(=O)OCc2ccccc2)C1)NC[C@H](NC(=O)CCCc1ccccc1)C(=O)O [Compound 127, 4-{[2-Carboxy-2-(4-phenyl-butyrylamino)-ethylcarbamoyl]-methoxy}-2-(pyridin-2-ylaminomethyl)-pyrrolidine-1-carboxylic acid benzyl ester]
  IC50: 0.01 to 0.5 µM

## Cc1cc(C)c(S(=O)(=O)N[C@@H](CNC(=O)CO[C@@H]2C[C@@H](CNc3ncccn3)N(C(=O)OCc3ccccc3)C2)C(=O)O)c(C)c1 [Compound 130, 4-{[2-Carboxy-2-(2,4,6-trimethyl-benzenesulfonylamino)-ethylcarbamoyl]-methoxy}-2-(pyrimidin-2-ylaminomethyl)-pyrrolidine-1-carboxylic acid benzyl ester]
  IC50: > 0.5 µM

## Cc1cc(C)c(S(=O)(=O)N[C@@H](CNC(=O)CO[C@@H]2C[C@@H](CNc3cc[nH]n3)N(C(=O)OCc3ccccc3)C2)C(=O)O)c(C)c1 [Compound 135, 4-{[2-Carboxy-2-(2,4,6-trimethyl-benzenesulfonylamino)-ethylcarbamoyl]-methoxy}-2-[(1H-pyrazol-3-ylamino)-methyl]-pyrrolidine-1-carboxylic acid benzyl ester]
  IC50: > 0.5 µM

## COc1ccnc(NC[C@@H]2C[C@@H](OCC(=O)NC[C@H](NC(=O)C3(C)CCCCC3)C(=O)O)CN2C(=O)CC(C)(C)C)c1 [Compound 148, 3-(2-{1-(3,3-Dimethyl-butyryl)-5-[(4-methoxy-pyridin-2-ylamino)-methyl]-pyrrolidin-3-yloxy}-acetylamino)-2-[(1-methyl-cyclohexanecarbonyl)-amino]-propionic acid]
  IC50: < 0.01 µM

## O=C(O)C[C@H](Cc1ccccc1)NC(=O)CO[C@@H]1C[C@@H](CNc2ccccn2)N(C(=O)OCc2ccccc2)C1 [Compound 150, 4-[(1-Carboxymethyl-2-phenyl-ethylcarbamoyl)-methoxy]-2-(pyridin-2-ylaminomethyl)-pyrrolidine-1-carboxylic acid benzyl ester]
  IC50: > 0.5 µM

## Cc1ccc(C[C@@H](CC(=O)O)NC(=O)CO[C@@H]2C[C@@H](CNc3ccccn3)N(C(=O)OCc3ccccc3)C2)cc1 [Compound 152, 4-[(1-Carboxymethyl-2-p-tolyl-ethylcarbamoyl)-methoxy]-2-(pyridin-2-ylaminomethyl)-pyrrolidine-1-carboxylic acid benzyl ester]
  IC50: > 0.5 µM
